In patent publication US20040063662A1, “Selenophene anti-tumor agents” (priority 1996, published 2004):

Assays:
HL-60(TB) = experiment: NCI human tumor cell panel: HL-60(TB) (Leukemia); format: cell-based; details: Leukemia, read-out: Log10 GI50 (converted)
K-562 = experiment: NCI human tumor cell panel: K-562 (Leukemia); format: cell-based; details: K562, K-562, Leukemia
RPMI-8226 = experiment: NCI human tumor cell panel: RPMI-8226 (Leukemia); format: cell-based; details: RPMI-8226, Leukemia
EKVX = experiment: NCI human tumor cell panel: EKVX (Non-Small Cell Lung Cancer); format: cell-based; details: Non-Small Cell Lung Cancer
NCI-H226 = experiment: NCI human tumor cell panel: NCI-H226 (Non-Small Cell Lung Cancer); format: cell-based; details: NCI-H226, Non-Small Cell Lung Cancer
COLO 205 = experiment: NCI human tumor cell panel: COLO 205 (Colon Cancer); format: cell-based; details: COLO 205, Colon Cancer
HCC-2998 = experiment: NCI human tumor cell panel: HCC-2998 (Colon Cancer); format: cell-based; details: HCC-2998, Colon Cancer
HCT-15 = experiment: NCI human tumor cell panel: HCT-15 (Colon Cancer); format: cell-based; details: HCT-15, Colon Cancer
KM12 = experiment: NCI human tumor cell panel: KM12 (Colon Cancer); format: cell-based; details: KM12, Colon Cancer
SW-620 = experiment: NCI human tumor cell panel: SW-620 (Colon Cancer); format: cell-based; details: SW-620, Colon Cancer
SF-268 = experiment: NCI human tumor cell panel: SF-268 (CNS Cancer); format: cell-based; details: SF-268, CNS Cancer
SNB-75 = experiment: NCI human tumor cell panel: SNB-75 (CNS Cancer); format: cell-based; details: SNB-75, CNS Cancer
LOX IMVI = experiment: NCI human tumor cell panel: LOX IMVI (Melanoma); format: cell-based; details: Melanoma
SK-MEL-2 = experiment: NCI human tumor cell panel: SK-MEL-2 (Melanoma); format: cell-based; details: SK-MEL-2, Melanoma
IGROV1 = experiment: NCI human tumor cell panel: IGROV1 (Ovarian Cancer); format: cell-based; details: IGROV-1, IGROV1, Ovarian Cancer
OVCAR-5 = experiment: NCI human tumor cell panel: OVCAR-5 (Ovarian Cancer); format: cell-based; details: OVCAR-5, Ovarian Cancer
OVCAR-8 = experiment: NCI human tumor cell panel: OVCAR-8 (Ovarian Cancer); format: cell-based; details: OVCAR-8, Ovarian Cancer
SK-OV-3 = experiment: NCI human tumor cell panel: SK-OV-3 (Ovarian Cancer); format: cell-based; details: SK-OV-3, Ovarian Cancer
786-0 = experiment: NCI human tumor cell panel: 786-0 (Renal Cancer); format: cell-based; details: 786-0, Renal Cancer
CAKI-1 = experiment: NCI human tumor cell panel: CAKI-1 (Renal Cancer); format: cell-based; details: CAKI-1, Renal Cancer
RXF-393 = experiment: NCI human tumor cell panel: RXF-393 (Renal Cancer); format: cell-based; details: RXF-393, Renal Cancer
SN12C = experiment: NCI human tumor cell panel: SN12C (Renal Cancer); format: cell-based; details: Renal Cancer
DU-145 = experiment: NCI human tumor cell panel: DU-145 (Prostate Cancer); format: cell-based; details: DU-145, Prostate Cancer
MDA-MB-231/ATCC = experiment: NCI human tumor cell panel: MDA-MB-231/ATCC (Breast Cancer); format: cell-based; details: Homo sapiens, MDA-MB-231, MDA-MB-231/ATCC, Breast Cancer
BT-549 = experiment: NCI human tumor cell panel: BT-549 (Breast Cancer); format: cell-based; details: BT-549, Breast Cancer
T-47D = experiment: NCI human tumor cell panel: T-47D (Breast Cancer); format: cell-based; details: T47D, Breast Cancer
NCI-H522 = experiment: NCI human tumor cell panel: NCI-H522 (Non-Small Cell Lung Cancer)
[1] = read-out: Log10 GI50 (converted)
[2] = read-out: Log10 TGI (converted)

Question: How did the GI50 (HL-60(TB)) turn out when `O=Cc1ccc(-c2ccc(-c3ccc(C=O)s3)[se]2)s1` [NSC 675345] was run?
Answer: > 100 µM

Question: What about the GI50 (K-562; [1]) of the same compound?
Answer: 30.9 µM

Question: And the IC (TGI) (K-562; [2])?
Answer: > 100 µM

Question: And the GI50 (RPMI-8226; [1])?
Answer: > 100 µM

Question: And the IC (TGI) (RPMI-8226; read-out: Log10 TGI)?
Answer: > 100 µM

Question: What about the GI50 (EKVX; [1]) of the same compound?
Answer: > 100 µM

Question: What about the IC (TGI) (EKVX; [2]) of the same compound?
Answer: > 100 µM

Question: What about the GI50 (NCI-H226; [1]) of the same compound?
Answer: 0.575 µM

Question: And the IC (TGI) (NCI-H226; [2])?
Answer: 2.45 µM

Question: What about the GI50 (COLO 205; [1]) of the same compound?
Answer: 33.9 µM

Question: What about the IC (TGI) (COLO 205; [2]) of the same compound?
Answer: > 100 µM

Question: What about the GI50 (HCC-2998; [1]) of the same compound?
Answer: 2.34 µM

Question: And the IC (TGI) (HCC-2998; [2])?
Answer: 6.92 µM

Question: What about the GI50 (HCT-15; [1]) of the same compound?
Answer: > 100 µM

Question: What about the IC (TGI) (HCT-15; [2]) of the same compound?
Answer: > 100 µM

Question: What about the GI50 (KM12; [1]) of the same compound?
Answer: > 100 µM

Question: And the IC (TGI) (KM12; [2])?
Answer: > 100 µM

Question: What about the GI50 (SW-620; [1]) of the same compound?
Answer: 38 µM

Question: And the IC (TGI) (SW-620; [2])?
Answer: > 100 µM

Question: What about the GI50 (SF-268; [1]) of the same compound?
Answer: > 100 µM

Question: What about the IC (TGI) (SF-268; [2]) of the same compound?
Answer: > 100 µM

Question: What about the GI50 (SNB-75; [1]) of the same compound?
Answer: 52.5 µM

Question: And the IC (TGI) (SNB-75; [2])?
Answer: > 100 µM

Question: What about the GI50 (LOX IMVI; [1]) of the same compound?
Answer: > 100 µM

Question: What about the IC (TGI) (LOX IMVI; [2]) of the same compound?
Answer: > 100 µM

Question: What about the GI50 (SK-MEL-2; [1]) of the same compound?
Answer: 77.6 µM

Question: And the IC (TGI) (SK-MEL-2; [2])?
Answer: > 100 µM

Question: And the GI50 (IGROV1; [1])?
Answer: 4.37 µM

Question: And the IC (TGI) (IGROV1; [2])?
Answer: 22.9 µM

Question: What about the GI50 (OVCAR-5; [1]) of the same compound?
Answer: 1.55 µM

Question: And the IC (TGI) (OVCAR-5; [2])?
Answer: 5.37 µM

Question: And the GI50 (OVCAR-8; [1])?
Answer: > 100 µM

Question: And the IC (TGI) (OVCAR-8; [2])?
Answer: > 100 µM

Question: And the GI50 (SK-OV-3; [1])?
Answer: 55 µM

Question: And the IC (TGI) (SK-OV-3; [2])?
Answer: > 100 µM

Question: What about the GI50 (786-0; [1]) of the same compound?
Answer: 11 µM

Question: And the IC (TGI) (786-0; [2])?
Answer: > 100 µM

Question: What about the GI50 (CAKI-1; [1]) of the same compound?
Answer: 32.4 µM

Question: What about the IC (TGI) (CAKI-1; [2]) of the same compound?
Answer: > 100 µM

Question: And the GI50 (RXF-393; [1])?
Answer: > 100 µM

Question: What about the IC (TGI) (RXF-393; [2]) of the same compound?
Answer: > 100 µM

Question: What about the GI50 (SN12C; [1]) of the same compound?
Answer: 0.257 µM

Question: And the IC (TGI) (SN12C; [2])?
Answer: 1.66 µM

Question: What about the GI50 (DU-145; [1]) of the same compound?
Answer: > 100 µM

Question: And the IC (TGI) (DU-145; [2])?
Answer: > 100 µM

Question: And the GI50 (MDA-MB-231/ATCC; [1])?
Answer: 18.2 µM

Question: And the IC (TGI) (MDA-MB-231/ATCC; [2])?
Answer: > 100 µM

Question: What about the GI50 (BT-549; [1]) of the same compound?
Answer: > 100 µM

Question: And the IC (TGI) (BT-549; [2])?
Answer: > 100 µM

Question: And the GI50 (T-47D; [1])?
Answer: 79.4 µM

Question: And the IC (TGI) (T-47D; [2])?
Answer: > 100 µM

Question: And the GI50 (NCI-H522; NCI-H522, read-out: Log10 GI50 (converted))?
Answer: 85.1 µM

Question: And the IC (TGI) (NCI-H522; NCI-H522, read-out: Log10 TGI)?
Answer: > 100 µM
